Experimental data: ChEMBL document CHEMBL1123136, “Difluorostatine- and difluorostatone-containing peptides as potent and specific renin inhibitors” (J Med Chem, 1985)
Non-standard residues stand in square brackets, D forms with d. Residues, ends and D or L forms follow the SMILES beside them. *: point of attachment. Sta = CC(C)C[C@H](N)[C@@H](O)CC(=O)O; NHCH2(2-pyridyl) = c1ccc(CN*)nc1; Boc = CC(C)(C)OC(=O)*

How the values were obtained:
Renin = target: T1, Renin (Homo sapiens, UniProt P00797); experiment: Plasma renin inhibitory activity was evaluated in lyophilized human plasma with 0.1%EDTA; assay type: cell-free
T1 sequence (P00797 whole entry): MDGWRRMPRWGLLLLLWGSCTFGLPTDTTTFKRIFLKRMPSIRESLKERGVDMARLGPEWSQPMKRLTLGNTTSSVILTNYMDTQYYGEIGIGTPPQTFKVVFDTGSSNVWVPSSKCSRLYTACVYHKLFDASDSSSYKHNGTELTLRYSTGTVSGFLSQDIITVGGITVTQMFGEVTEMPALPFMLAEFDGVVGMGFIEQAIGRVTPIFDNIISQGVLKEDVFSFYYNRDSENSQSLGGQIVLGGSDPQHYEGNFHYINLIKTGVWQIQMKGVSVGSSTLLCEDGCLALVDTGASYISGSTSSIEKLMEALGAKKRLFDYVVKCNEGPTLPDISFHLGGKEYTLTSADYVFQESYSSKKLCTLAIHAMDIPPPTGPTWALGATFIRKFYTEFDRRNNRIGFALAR

[1] = target: T2, Angiotensin-converting enzyme (Oryctolagus cuniculus, UniProt P12822); experiment: Inhibitory activity was evaluated against Angiotensin I converting enzyme activity in rabbit
T2 sequence (P12822 whole entry): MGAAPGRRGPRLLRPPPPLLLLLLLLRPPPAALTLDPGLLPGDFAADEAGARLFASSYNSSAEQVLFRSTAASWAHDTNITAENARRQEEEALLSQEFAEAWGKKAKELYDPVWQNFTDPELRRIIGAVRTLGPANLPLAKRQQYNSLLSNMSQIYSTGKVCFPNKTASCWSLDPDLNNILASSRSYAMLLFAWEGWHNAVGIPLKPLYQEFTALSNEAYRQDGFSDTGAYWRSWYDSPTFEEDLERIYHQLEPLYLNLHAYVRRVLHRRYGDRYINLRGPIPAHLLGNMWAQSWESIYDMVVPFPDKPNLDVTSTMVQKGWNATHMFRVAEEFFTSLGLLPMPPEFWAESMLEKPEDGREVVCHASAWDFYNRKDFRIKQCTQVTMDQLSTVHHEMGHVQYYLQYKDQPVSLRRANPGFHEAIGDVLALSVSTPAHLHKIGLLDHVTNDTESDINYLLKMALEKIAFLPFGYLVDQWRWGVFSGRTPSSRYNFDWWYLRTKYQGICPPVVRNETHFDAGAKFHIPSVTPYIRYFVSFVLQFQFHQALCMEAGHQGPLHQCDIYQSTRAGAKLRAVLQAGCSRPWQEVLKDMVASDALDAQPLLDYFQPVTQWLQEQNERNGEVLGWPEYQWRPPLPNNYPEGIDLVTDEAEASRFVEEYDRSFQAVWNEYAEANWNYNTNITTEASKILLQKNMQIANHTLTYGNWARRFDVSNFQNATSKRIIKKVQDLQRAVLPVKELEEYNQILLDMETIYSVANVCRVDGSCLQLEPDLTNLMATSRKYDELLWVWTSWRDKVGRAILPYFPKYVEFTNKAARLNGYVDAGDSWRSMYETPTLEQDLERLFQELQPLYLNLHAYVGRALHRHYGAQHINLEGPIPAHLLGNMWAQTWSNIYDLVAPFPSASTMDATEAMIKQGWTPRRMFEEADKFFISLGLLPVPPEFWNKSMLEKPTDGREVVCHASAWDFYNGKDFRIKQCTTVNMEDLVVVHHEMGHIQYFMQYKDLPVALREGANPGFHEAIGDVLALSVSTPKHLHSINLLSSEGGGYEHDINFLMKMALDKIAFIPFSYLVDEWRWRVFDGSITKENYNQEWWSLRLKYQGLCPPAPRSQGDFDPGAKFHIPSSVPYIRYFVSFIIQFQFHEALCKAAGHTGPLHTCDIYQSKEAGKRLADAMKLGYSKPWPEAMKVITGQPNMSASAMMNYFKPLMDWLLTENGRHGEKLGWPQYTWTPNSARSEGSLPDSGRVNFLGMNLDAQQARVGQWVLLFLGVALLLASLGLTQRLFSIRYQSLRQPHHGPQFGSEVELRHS

Pepsin A = Pepsin A (Sus scrofa, UniProt P00791); experiment: Inhibitory activity was evaluated against pepsin using porcine pepsin (sigma), porcine hemoglobin (sigma) and 0.02 M KCl-HCl buffer (pH 2)
Sequence of Pepsin A (P00791 whole entry): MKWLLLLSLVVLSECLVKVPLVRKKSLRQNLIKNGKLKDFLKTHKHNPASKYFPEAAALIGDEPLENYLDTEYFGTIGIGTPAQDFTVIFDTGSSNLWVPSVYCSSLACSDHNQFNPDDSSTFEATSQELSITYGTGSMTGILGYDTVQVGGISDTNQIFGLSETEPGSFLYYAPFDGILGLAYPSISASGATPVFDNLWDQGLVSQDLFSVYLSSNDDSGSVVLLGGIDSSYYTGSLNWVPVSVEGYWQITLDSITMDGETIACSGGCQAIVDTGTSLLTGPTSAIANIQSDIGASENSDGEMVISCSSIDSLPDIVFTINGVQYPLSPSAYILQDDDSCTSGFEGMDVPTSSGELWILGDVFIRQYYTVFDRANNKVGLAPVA

Molecule | IC50 (Renin) [nM] | other results
CC[C@H](C)[C@H](NC(=O)C(F)(F)[C@@H](O)[C@H](CC(C)C)NC(=O)[C@H](Cc1c[nH]cn1)NC(=O)[C@H](Cc1ccccc1)NC(=O)OC(C)(C)C)C(=O)NCc1ccccn1 | 730 | 
CC[C@H](C)[C@H](NC(=O)C[C@H](O)[C@H](CC(C)C)NC(=O)[C@H](Cc1c[nH]cn1)NC(=O)[C@H](Cc1ccccc1)NC(=O)OC(C)(C)C)C(=O)NCc1ccccn1 (Boc-FH[Sta]I-{NHCH2(2-pyridyl)}) | 1.7 | 
H-PHPFHFFVYK-OH [RIP] |  | IC50 [1]: 12000 nM
CC[C@H](C)[C@H](NC(=O)CC(=O)[C@H](CC(C)C)NC(=O)[C@H](Cc1c[nH]cn1)NC(=O)[C@H](Cc1ccccc1)NC(=O)OC(C)(C)C)C(=O)NCc1ccccn1 | 34 | 
CC(C)CC(=O)N[C@H](C(=O)N[C@H](C(=O)N[C@@H](CC(C)C)[C@@H](O)CC(=O)N[C@@H](C)C(=O)N[C@@H](CC(C)C)[C@@H](O)CC(=O)O)C(C)C)C(C)C [PEPSTATIN] |  | IC50 (Pepsin A): 10 nM
CC[C@H](C)[C@H](NC(=O)C(F)(F)C(=O)[C@H](CC(C)C)NC(=O)[C@H](Cc1c[nH]cn1)NC(=O)[C@H](Cc1ccccc1)NC(=O)OC(C)(C)C)C(=O)NCc1ccccn1 | 0.52 | 
CC[C@H](C)[C@H](NC(=O)C(F)(F)[C@H](O)[C@H](CC(C)C)NC(=O)[C@H](Cc1c[nH]cn1)NC(=O)[C@H](Cc1ccccc1)NC(=O)OC(C)(C)C)C(=O)NCc1ccccn1 | 12 | 
